The target in this experiment is T1, Humane Glykogenphosphorylase a (Homo sapiens, UniProt P06737).
T1 sequence (P06737 1-847): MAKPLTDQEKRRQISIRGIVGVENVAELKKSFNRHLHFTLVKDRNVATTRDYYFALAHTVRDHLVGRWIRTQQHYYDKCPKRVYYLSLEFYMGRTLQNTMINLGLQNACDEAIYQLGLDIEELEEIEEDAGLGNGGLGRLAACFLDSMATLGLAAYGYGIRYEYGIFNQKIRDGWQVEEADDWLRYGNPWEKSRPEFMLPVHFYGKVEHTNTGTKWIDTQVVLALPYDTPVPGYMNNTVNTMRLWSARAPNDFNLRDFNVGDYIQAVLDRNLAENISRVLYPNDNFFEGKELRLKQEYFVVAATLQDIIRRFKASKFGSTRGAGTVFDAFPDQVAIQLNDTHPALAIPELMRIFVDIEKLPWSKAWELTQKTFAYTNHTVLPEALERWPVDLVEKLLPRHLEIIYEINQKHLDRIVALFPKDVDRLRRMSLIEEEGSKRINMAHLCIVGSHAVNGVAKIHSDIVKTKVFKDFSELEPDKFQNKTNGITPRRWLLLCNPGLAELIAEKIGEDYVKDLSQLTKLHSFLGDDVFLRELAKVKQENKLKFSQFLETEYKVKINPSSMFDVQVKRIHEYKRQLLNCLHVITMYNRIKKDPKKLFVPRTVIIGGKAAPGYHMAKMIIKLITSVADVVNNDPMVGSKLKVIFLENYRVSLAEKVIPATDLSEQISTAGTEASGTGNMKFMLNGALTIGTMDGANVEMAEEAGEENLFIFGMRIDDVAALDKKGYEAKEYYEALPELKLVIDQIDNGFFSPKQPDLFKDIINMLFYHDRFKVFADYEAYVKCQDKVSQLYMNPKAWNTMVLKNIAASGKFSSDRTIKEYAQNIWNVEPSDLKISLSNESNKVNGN
Kind of experiment: Glycogen phosphorylase a activity test (reverse direction, release of inorganic phosphate). Type of experiment: biochemical. The settings on record: 10 µM test substance, in vitro, 40 min at room temperature, absorbance at 820 nm; for inhibition at 10 µM: read-out: % Inhibition bei 10 µM. The procedure: Glykogenphosphorylase a Aktivitätstest
Der Effekt von Verbindungen auf die Aktivität der aktiven Form der Glykogenphosphorylase (GPa) wurde in der umgekehrten Richtung, durch Verfolgen der Glykogensynthese aus Glukose-1-Phosphat an Hand der Bestimmung der Freisetzung von anorganischem Phosphat, gemessen.
Prüfsubstanzen wurden als 10 mM Lösung in DMSO zubereitet und auf 50 µM mit Pufferlösung T verdünnt. Zu 10 µl dieser Lösung wurden 10 µl 37,5 mM Glukose, gelöst in Pufferlösung T und 5 mg/mL Glykogen, sowie 10 µl einer Lösung von humaner Glykogenphosphorylase a ([…]) und 20 µl Glukose-1-Phosphat, 2,5 mM zugegeben. Der basale Wert der Glykogenphosphorylase a Aktivität in Abwesenheit von Prüfsubstanz wurde durch Zugabe von 10 µl Pufferlösung T (0,1 % DMSO) bestimmt. […] Zur Bestimmung der Hintergrundsabsorption wurde in einem separaten Ansatz die Stop-Lösung unmittelbar nach Zugabe der Glukose-1-Phosphatlösung zugegeben.
Dieser Test wurde mit einer Konzentrationen von 10 µM der Prüfsubstanz durchgeführt, um die jeweilige Hemmung der Glykogenphosphorylase a in vitro durch die Prüfsubstanz zu bestimmen. Tabelle 2: Biologische Aktivität

The results in this text go back to patent publication EP1497262B1, “ACYL-4-CARBOXYPHENYLUREA DERIVATIVES, METHOD FOR PRODUCTION AND USE THEREOF” (Sanofi-Aventis Deutschland GmbH, priority 2002, dated 2003).

By inhibition is commonly meant the drop in the measured response relative to a control, in per cent. Consider `O=C(NC(=O)c1ccc(Cl)cc1Cl)Nc1ccc(C(=O)O)cc1[N+](=O)[O-]` [compound 2], for which the inhibition at 10 µM worked out at 85%. Still for that read-out and setting: next, `O=C(NC(=O)c1ccc(Cl)cc1Cl)Nc1ccc(C(=O)O)cc1O` [compound 5]: 80%. For `NC(CO)(CO)CO.O=C(NC(=O)c1cc(F)c(F)cc1Cl)Nc1ccc(C(=O)O)cc1OC(F)(F)F` [compound 49, 4-[3-(2-Chlor-4,5-difluor-benzoyl)-ureido]-3-trifluoromethoxy-benzoesäure TRIS-Salz], the “% Inhibition bei 10 µM” value is on record as 103%. With `O=C(NC(=O)c1ccccc1Cl)Nc1ccc(C(=O)O)cc1[N+](=O)[O-]` [compound 1], the inhibition at 10 µM came to 71%. Still for that read-out and setting: the same measure for `CCOC(=O)c1ccc(NC(=O)NC(=O)c2c(F)cccc2F)cc1` [Vergleichsbeispiel A, reference compound]: 3%.
